Measurements: US20130310611A1, “PROCESS FOR PRODUCTION OF PHENOLIC POLYMERIZABLE COMPOUND HAVING PHYSIOLOGICAL ACTIVITY” (UHA MIKAKUTO CO., LTD., priority 2010, published 2013)
Like-named read-outs stand apart in the source and are kept apart here.

How the values were obtained:
[1] = Solubility (physicochemical properties); conditions: for Solubility: DMSO: solvent DMSO; for Solubility: Chloroform: solvent chloroform; for Solubility: Ethanol: solvent ethanol; for Solubility: Ethyl acetate: solvent ethyl acetate; for Solubility: Methanol: solvent methanol; for Solubility: Water: solvent water
[2] = biological target: rat intestine derived lipase; test: Lipase inhibitory action test (Lipase kit S); format: biochemical; conditions: 30° C., 10 minutes reaction
Protocol: In order to see the inhibitory action to lipase of the phenolic polymerizable compound, an inhibitory action test using rat intestine derived lipase was performed.
As lipase, one obtained by suspending 100 mg of rat derived intestine acetone powder (manufactured by Sigma-Aldrich Japan) in 1 ml of 100 mM citric acid buffer (pH 6.0), stirred at 4° C. for 1 hour, centrifuging the same (at 15000 rpm for 45 minutes at 4° C.), and then diluting the supernatant by 1500 times was used as a lipase solution.
As samples, p-coumaric acid, ferulic acid, and coffeic acid and the UHA6005, the UHA6006, the UHA7009, the UHA7010, the UHA7011, the UHA8015, and the UHA9020 which were already purified were used. With respect to the preparation of the samples, each compound was dissolved in DMSO, and then prepared in such a manner as to achieve 0.1 mM, 0.5 mM, 1 mM, 2 mM, and 4 mM.
For measuring the activity, a “Lipase kit S” (Trade name, manufactured by Dainippon Pharmaceutical Co., Ltd.) was used. First, in accordance with a preparation method described in the catalog of the Lipase kit S, a color developing liquid was prepared. Reaction liquids in which 70 μl of the color developing liquid, 2 μl of an esterase inhibitor, 10 μl of the lipase solution, and 10 μl of the samples (Final concentration: 10 μM, 50 μM, 100 μM, 200 μM, 400 μM, and 1000 μM) were mixed were prepared, preincubated at 30° C. for 5 minutes, and then 8 μl of a substrate solution described in the catalog was added. Then, a reaction was started. After reacting for 10 minutes, 150 μl of a reaction stop liquid prepared in accordance with the preparation method described in the catalog of the Lipase kit S was added to stop the reaction. The resultant substance was subjected to a measurement of absorbancy at a wavelength of 415 nm. A reaction liquid to which only DMSO as the solvent of the sample was added was used as a positive control and one to which 10 μl of 100 mM citric acid buffer (pH 6.0) was added instead of the lipase solution was used as a negative control. From the relationship between the lipase inhibition rate calculated based on the data obtained therefrom and the concentration of each compound, the concentration IC50 at which the lipase activity is inhibited by 50% was calculated.

[3] = tested on: HL-60 cells (human promyelocytic leukemia cells); test: Cancer cell growth suppressing action using HL-60 cells (MTT method, Cell counting kit-8); format: cell-based; conditions: 24 hours, 6.3-100 μM, read-out: Cell growth suppressing ability to HL-60 (IC50)
Protocol: Next, in order to see the effect of the phenolic polymerizable compound to cancer cells, cancer cell growth suppressing action using HL-60 cells (human promyelocytic leukemia cells) was tested.
For culturing the HL-60 cells, an enriched culture medium “RPMI-1640” (manufactured by Sigma-Aldrich Japan) containing 4 mM glutamine (L-Glutamine, manufactured by Sigma-Aldrich Japan) and 10% FBS (Foetal Bovine Serum, manufactured by Biological Industries) was used. For the test, a 96-well plate for cell culture (manufactured by Corning Japan) was used, and the HL-60 cells whose number of cells was adjusted to be 5×10^5 cells/mL were seeded at 100 μL per well.
As samples, p-coumaric acid, ferulic acid, coffeic acid, and sinapic acid, and the UHA6005, the UHA6006, the UHA7004, the UHA7009, the UHA7010, the UHA7011, the UHA8015, the UHA9019, and the UHA9020 which were already purified were used. With respect to the preparation of the samples, each compound was dissolved in DMSO (Wako Pure Chemical Industries, Ltd.), and then adjusted in such a manner that the final concentration in the HL-60 cell culture solutions was 6.3 μM, 12.5 μM, 25 μM, 50 μM, and 100 μM. Then, the test was started.
The number of viable cells was quantified by an MTT method using a “Cell counting kit-8” (manufactured by DOJINDO LABORATORIES). 24 hours after starting the test, 10 μl of a Cell counting kit-8 solution was added to each well, and then sufficiently stirred. After a shading reaction for 1 hour, the absorbancy was measured at a measurement wavelength of 450 nm using a plate leader (Biorad Laboratories, Inc., “BIO-RAD Model 680”). Then, the cell viability was calculated based on the obtained data. The cell viability is a value obtained by setting the number of viable cells of the culture liquid to which only DMSO as a solvent was added to 100%, and then calculating the number of viable cells under the concentration of each compound as a relative value. From the relationship between the concentration of each compound and the cell viability, the concentration IC50 (50% inhibition concentration) at which the cell growth is suppressed by 50% was calculated.

[4] = tested on: SCC-4 cells (human oral cancer cells, ATCC); test: Cancer cell growth suppressing action using SCC-4 cells (MTT method, Cell counting kit-8); format: cell-based; conditions: 6.3-100 μM, read-out: Cell growth suppressing ability (IC50)
Protocol: Next, in order to see the effect of the phenolic polymerizable compound to oral cancer cells, cancer cell growth suppressing action using SCC-4 cells (human oral cancer cells, ATCC) was tested.
For culturing the SCC-4 cells, a DMEM/F-12 (1:1) culture medium (manufactured by GIBCO) containing 400 ng/mL hydrocortisone (manufactured by Sigma-Aldrich Japan), 1% antibiotic-antimycotic (manufactured by GIBCO), and 10% FBS (Foetal Bovine Serum, manufactured by ATCC) was used. For the test, a collagen I coat 96 well plate for cell culture (manufactured by Japan BD) was used, and SCC-4 cells whose number of cells was adjusted to be 5×10^5 cells/mL were seeded at 100 μL per well. The cells were cultured under the conditions of 37° C. and 5% CO2 for 24 hours, and were used for the test in a confluent state of 80% or higher.
As samples, p-coumaric acid and coffeic acid and the UHA6005, the UHA7009, the UHA7010, and the UHA7011 which were already purified were used. With respect to the preparation of the samples, each compound was dissolved in DMSO, and then prepared in such a manner as to achieve 0.63 mM, 1.25 mM, 2.5 mM, 5 mM, and 10 mM. The samples were added in such a manner that the final concentration in the SCC-4 cell culture solution was 6.3 μM, 12.5 μM, 25 μM, 50 μM, and 100 μM. Then, the test was started. A sample to which an equivalent amount of only DMSO as the solvent was added was used as a negative control.
The number of viable cells was quantified by an MTT method using a “Cell counting kit-8” in the same manner as in Example 18, and the concentration IC50 at which the cell growth is suppressed by 50% was calculated.

| Solubility: DMSO [1] | Solubility: Chloroform [1] | Solubility: Ethanol [1] | Solubility: Ethyl acetate [1] | Solubility: Methanol [1] | Solubility: Water [1] | IC50 [2] [µM] | IC50 ([3]; Homo sapiens) [µM] | IC50 [4] [µM] | IC50 [3] [µM] | IC50 ([4]; Homo sapiens) [µM] | SMILES |
| --- | --- | --- | --- | --- | --- | --- | --- | --- | --- | --- | --- |
| Soluble | Soluble | Soluble | Soluble | Soluble | Non-soluble | 350 | 74.3 |  |  |  | COc1cc(C(C)/C=C/c2ccc(O)cc2)ccc1O (single isomer, unassigned) [UHA8015] |
|  |  |  |  |  |  | > 1000 |  | > 100 | > 100 |  | O=C(O)/C=C/c1ccc(O)c(O)c1 [Coffeic acid, reference compound] |
|  |  |  |  |  |  | > 1000 | > 100 |  |  |  | COc1cc(/C=C/C(=O)O)ccc1O [Ferulic acid, reference compound] |
|  |  |  |  |  |  |  | > 100 |  |  |  | COc1cc(/C=C/C(=O)O)cc(OC)c1O [Sinapic acid, reference compound] |
| Soluble | Soluble | Soluble | Soluble | Soluble | Poorly soluble | 253 | 43.7 |  |  | 69.7 | CC(/C=C/c1ccc(O)c(O)c1)c1ccc(O)c(O)c1 (centres unmarked) [UHA6005] |
| Soluble | Soluble | Soluble | Soluble | Soluble | Poorly soluble | 188 | 42.4 |  |  |  | CC(/C=C/c1cc(O)c(O)cc1C(C)c1ccc(O)c(O)c1)c1ccc(O)c(O)c1 (centres unmarked) [UHA6006] |
| Soluble | Soluble | Soluble | Soluble | Soluble | Poorly soluble |  | 17.6 |  |  |  | COc1cc(/C=C/C(C)c2ccc(O)c(OC)c2)ccc1O (centres unmarked) [UHA7004] |
| Soluble | Soluble | Soluble | Soluble | Soluble | Poorly soluble | 438 | 49.3 |  |  | 72.9 | CC(/C=C/c1ccc(O)cc1)c1ccc(O)cc1 (centres unmarked) [UHA7009] |
| Soluble | Soluble | Soluble | Soluble | Soluble | Poorly soluble | 60.4 | 35.3 |  |  | 61.1 | CC(CC(/C=C/c1ccc(O)cc1)c1ccc(O)cc1)c1ccc(O)cc1 (centres unmarked) [UHA7010] |
| Soluble | Soluble | Soluble | Soluble | Soluble | Poorly soluble | 197 | 35.4 |  |  | 40.8 | CC(/C=C/c1ccc(O)c(C(C)c2ccc(O)cc2)c1)c1ccc(O)cc1 (centres unmarked) [UHA7011] |
| Soluble | Soluble | Soluble | Soluble | Soluble | Poor soluble |  | 66.2 |  |  |  | COc1cc(/C=C/C(C)c2cc(OC)c(O)c(OC)c2)cc(OC)c1O (centres unmarked) [UHA9019] |
| Soluble | Soluble | Soluble | Soluble | Soluble | Non-soluble | 118 | 38.5 |  |  |  | COc1cc(/C=C/C(C)c2ccc(O)c(O)c2)ccc1O (centres unmarked) [UHA9020] |
|  |  |  |  |  |  | > 1000 | > 100 |  |  | > 100 | O=C(O)/C=C/c1ccc(O)cc1 [p-coumaric acid, reference compound] |
